Reference: patent publication US9763957B2, “Autotaxin inhibitors” (Novartis AG, priority 2013, dated 2017)

molecular target: Recombinant human ATX (Homo sapiens (Human), UniProt Q13822); experiment: ATX inhibition assay (choline release, Amplex Red fluorescence); type: biochemical; details: ATX 10 nM, LPC 18:1 10 μM, 37° C., 20 min pre-incubation; mean of n≧2
In short: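 Activity was taken from the slope of resorufin fluorescence (530/590 nm, read every 2 min for 40 min at 37 °C) produced by choline liberated from 10 μM oleoyl LPC.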

Structure (SMILES)	IC50 [nM]
Cc1nnn(Cc2cc(C(F)(F)F)ccc2/C=C/C(=O)N2CCC(c3nnc(C4CCC4)o3)CC2)n1 [Example 103, (E)-1-(4-(5-Cyclobutyl-1,3,4-oxadiazol-2-yl)piperidin-1-yl)-3-(2-((5-methyl-2H-tetrazol-2-yl)methyl)-4-(trifluoromethyl)phenyl)prop-2-en-1-one]	5.3
Cc1nnn(Cc2cc(Cl)ccc2/C=C/C(=O)N2CCN(Cc3noc(C)n3)C[C@H]2C)n1 [Example 104, (R,E)-3-(4-Chloro-2-((5-methyl-2H-tetrazol-2-yl)methyl)phenyl)-1-(2-methyl-4-((5-methyl-1,2,4-oxadiazol-3-yl)methyl)piperazin-1-yl)prop-2-en-1-one]	3.9
Cc1nnn(Cc2cc(Cl)ccc2/C=C/C(=O)N2CCC(Cn3nnc(C)n3)CC2)n1 [Example 109, (E)-3-(4-Chloro-2-((5-methyl-2H-tetrazol-2-yl)methyl)phenyl)-1-(4-((5-methyl-2H-tetrazol-2-yl)methyl)piperidin-1-yl)prop-2-en-1-one]	16
Cc1nnn(Cc2cc(Cl)ccc2/C=C/C(=O)N2CCC(c3nnc(CC4CCOCC4)o3)CC2)n1 [Example 110, (E)-3-(4-Chloro-2-((5-methyl-2H-tetrazol-2-yl)methyl)phenyl)-1-(4-(5-((tetrahydro-2H-pyran-4-yl)methyl)-1,3,4-oxadiazol-2-yl)piperidin-1-yl)prop-2-en-1-one]	5.2
COC[C@@H]1CCCN1C(=O)/C=C/c1ccc(C(F)(F)F)cc1Cn1nnc(C)n1 [Example 111, (S,E)-1-(2-(Methoxymethyl)pyrrolidin-1-yl)-3-(2-((5-methyl-2H-tetrazol-2-yl)methyl)-4-(trifluoromethyl)phenyl)prop-2-en-1-one]	47
Cc1nnn(Cc2cc(C(F)(F)F)ccc2/C=C/C(=O)N2CCC(N(C)S(=O)(=O)C3CC3)CC2)n1 [Example 112, (E)-N-Methyl-N-(1-(3-(2-((5-methyl-2H-tetrazol-2-yl)methyl)-4-(trifluoromethyl)phenyl)acryloyl)piperidin-4-yl)cyclopropanesulfonamide]	14
Cc1noc(CN2CCN(C(=O)/C=C/c3ccc(Cl)cc3Cn3nnc(C)n3)[C@H](C)C2)n1 [Example 114, (R,E)-3-(4-Chloro-2-((5-methyl-2H-tetrazol-2-yl)methyl)phenyl)-1-(2-methyl-4-((3-methyl-1,2,4-oxadiazol-5-yl)methyl)piperazin-1-yl)prop-2-en-1-one]	3.9
Cc1nnn(Cc2cc(C(F)(F)F)ccc2/C=C/C(=O)N2CCN(Cc3nonc3C)CC2)n1 [Example 116, (E)-1-(4-((4-Methyl-1,2,5-oxadiazol-3-yl)methyl)piperazin-1-yl)-3-(2-((5-methyl-2H-tetrazol-2-yl)methyl)-4-(trifluoromethyl)phenyl)prop-2-en-1-one]	33
Cc1nnn(Cc2cc(C(F)(F)F)ccc2/C=C/C(=O)N2CCC[C@H]2C)n1 [Example 117, (R,E)-3-(2-((5-Methyl-2H-tetrazol-2-yl)methyl)-4-(trifluoromethyl)phenyl)-1-(2-methylpyrrolidin-1-yl)prop-2-en-1-one]	263
Cc1nnn(Cc2cc(C(F)(F)F)ccc2/C=C/C(=O)N2CCC(N(C)S(=O)(=O)c3ccc(F)cc3)CC2)n1 [Example 118, (E)-4-Fluoro-N-methyl-N-(1-(3-(2-((5-methyl-2H-tetrazol-2-yl)methyl)-4-(trifluoromethyl)phenyl)acryloyl)piperidin-4-yl)benzenesulfonamide]	24
COc1ccc(CN(C)C2CCN(C(=O)/C=C/c3ccc(C(F)(F)F)cc3Cn3nnc(C)n3)CC2)cc1 [Example 119, (E)-1-(4-((4-Methoxybenzyl)(methyl)amino)piperidin-1-yl)-3-(2-((5-methyl-2H-tetrazol-2-yl)methyl)-4-(trifluoromethyl)phenyl)prop-2-en-1-one]	47
Cc1cnn(CC2CCN(C(=O)/C=C/c3ccc(Cl)cc3Cn3nnc(C)n3)CC2)n1 [Example 120, (E)-3-(4-Chloro-2-((5-methyl-2H-tetrazol-2-yl)methyl)phenyl)-1-(4-((4-methyl-2H-1,2,3-triazol-2-yl)methyl)piperidin-1-yl)prop-2-en-1-one]	8.1
Cc1nnn(Cc2cc(C(F)(F)F)ccc2/C=C/C(=O)N2CCCC[C@H]2C(F)(F)F)n1 [Example 121, (S,E)-3-(2-((5-Methyl-2H-tetrazol-2-yl)methyl)-4-(trifluoromethyl)phenyl)-1-(2-(trifluoromethyl)piperidin-1-yl)prop-2-en-1-one]	6.9
Cc1nnn(Cc2cc(Cl)ccc2/C=C/C(=O)N2CCC(c3nnc(CN4CCCCC4)o3)CC2)n1 [Example 122, (E)-3-(4-Chloro-2-((5-methyl-2H-tetrazol-2-yl)methyl)phenyl)-1-(4-(5-(piperidin-1-ylmethyl)-1,3,4-oxadiazol-2-yl)piperidin-1-yl)prop-2-en-1-one]	58
COc1ccc(CN2CCN(C(=O)/C=C/c3ccc(Cl)cc3Cn3nnc(C)n3)[C@H](C)C2)nc1 [Example 123, (R,E)-3-(4-Chloro-2-((5-methyl-2H-tetrazol-2-yl)methyl)phenyl)-1-(4-((5-methoxypyridin-2-yl)methyl)-2-methylpiperazin-1-yl)prop-2-en-1-one]	3.5
Cc1nnn(Cc2cc(C(F)(F)F)ccc2/C=C/C(=O)N2CCCCC2C(F)(F)F)n1 (stereo not drawn) [Example 124, (E)-3-(2-((5-Methyl-2H-tetrazol-2-yl)methyl)-4-(trifluoromethyl)phenyl)-1-(2-(trifluoromethyl)piperidin-1-yl)prop-2-en-1-one]	35
CC(=O)NC1CCN(C(=O)/C=C/c2ccc(Cl)cc2Cn2nnc(C)n2)CC1 [Example 125, (E)-N-(1-(3-(4-Chloro-2-((5-methyl-2H-tetrazol-2-yl)methyl)phenyl)acryloyl)piperidin-4-yl)acetamide]	110
Cc1nnn(Cc2cc(C(F)(F)F)ccc2/C=C/C(=O)N2CCC(N3CCCC3=O)CC2)n1 [Example 126, (E)-1-(1-(3-(2-((5-Methyl-2H-tetrazol-2-yl)methyl)-4-(trifluoromethyl)phenyl)acryloyl)piperidin-4-yl)pyrrolidin-2-one]	22
Cc1nnn(Cc2cc(Cl)ccc2/C=C/C(=O)N2CCC(Cc3nnc(C)o3)CC2)n1 [Example 127, (E)-3-(4-Chloro-2-((5-methyl-2H-tetrazol-2-yl)methyl)phenyl)-1-(4-((5-methyl-1,3,4-oxadiazol-2-yl)methyl)piperidin-1-yl)prop-2-en-1-one]	60
COC(=O)C1CCN(C(=O)/C=C/c2ccc(Cl)cc2Cn2nnc(C)n2)CC1 [Example 128, (E)-Methyl 1-(3-(4-chloro-2-((5-methyl-2H-tetrazol-2-yl)methyl)phenyl)acryloyl)piperidine-4-carboxylate]	28
Cc1nnn(Cc2cc(Cl)ccc2/C=C/C(=O)N2CCC(CC(=O)N3CCOCC3)CC2)n1 [Example 129, (E)-3-(4-Chloro-2-((5-methyl-2H-tetrazol-2-yl)methyl)phenyl)-1-(4-(2-morpholino-2-oxoethyl)piperidin-1-yl)prop-2-en-1-one]	49
Cc1nnn(Cc2cc(Cl)ccc2/C=C/C(=O)N2CC(Oc3ccc(F)cc3)C2)n1 [Example 130, (E)-3-(4-Chloro-2-((5-methyl-2H-tetrazol-2-yl)methyl)phenyl)-1-(3-(4-fluorophenoxy)azetidin-1-yl)prop-2-en-1-one]	170
Cc1nnn(Cc2cc(C(F)(F)F)ccc2/C=C/C(=O)N2C[C@@H](F)C[C@H]2CO)n1 [Example 131, (E)-1-((2S,4S)-4-Fluoro-2-(hydroxymethyl)pyrrolidin-1-yl)-3-(2-((5-methyl-2H-tetrazol-2-yl)methyl)-4-(trifluoromethyl)phenyl)prop-2-en-1-one]	23
Cc1nnn(Cc2cc(C(F)(F)F)ccc2/C=C/C(=O)N2CCN(Cc3coc(C)n3)C[C@H]2CO)n1 [Example 132, (S,E)-1-(2-(Hydroxymethyl)-4-((2-methyloxazol-4-yl)methyl)piperazin-1-yl)-3-(2-((5-methyl-2H-tetrazol-2-yl)methyl)-4-(trifluoromethyl)phenyl)prop-2-en-1-one]	14
Cc1nnn(Cc2cc(C(F)(F)F)ccc2/C=C/C(=O)N2CCC[C@H]2CO)n1 [Example 133, (S,E)-1-(2-(Hydroxymethyl)pyrrolidin-1-yl)-3-(2-((5-methyl-2H-tetrazol-2-yl)methyl)-4-(trifluoromethyl)phenyl)prop-2-en-1-one]	81
Cc1nnn(Cc2cc(Cl)ccc2/C=C/C(=O)N2CCC(c3nnc(CN4CCOCC4)o3)CC2)n1 [Example 134, (E)-3-(4-Chloro-2-((5-methyl-2H-tetrazol-2-yl)methyl)phenyl)-1-(4-(5-(morpholinomethyl)-1,3,4-oxadiazol-2-yl)piperidin-1-yl)prop-2-en-1-one]	12
Cc1nnn(Cc2cc(Cl)ccc2/C=C/C(=O)N2CCC(Oc3ccc(C(F)(F)F)cn3)CC2)n1 [Example 135, (E)-3-(4-Chloro-2-((5-methyl-2H-tetrazol-2-yl)methyl)phenyl)-1-(4-((5-(trifluoromethyl)pyridin-2-yl)oxy)piperidin-1-yl)prop-2-en-1-one]	327
Cc1nnn(Cc2cc(Cl)ccc2/C=C/C(=O)N2CCC(Cc3nnc(CN4CCOCC4)o3)CC2)n1 [Example 136, (E)-3-(4-Chloro-2-((5-methyl-2H-tetrazol-2-yl)methyl)phenyl)-1-(4-((5-(morpholinomethyl)-1,3,4-oxadiazol-2-yl)methyl)piperidin-1-yl)prop-2-en-1-one]	32
Cc1nnn(Cc2cc(Cl)ccc2/C=C/C(=O)N2CCC(O)(Cc3ccccc3)CC2)n1 [Example 138, (E)-1-(4-Benzyl-4-hydroxypiperidin-1-yl)-3-(4-chloro-2-((5-methyl-2H-tetrazol-2-yl)methyl)phenyl)prop-2-en-1-one-N]	6.3
Cc1nnn(Cc2cc(Cl)ccc2/C=C/C(=O)N2CCC(Cc3ccccc3)CC2)n1 [Example 139, (E)-1-(4-Benzylpiperidin-1-yl)-3-(4-chloro-2-((5-methyl-2H-tetrazol-2-yl)methyl)phenyl)prop-2-en-1-one]	67
